Experimental data taken from patent US10010493B2, “Ester compound, and cosmetic component and cosmetic product each containing same” (Kokyu Alcohol Kogyo Co., Ltd., priority 2014, dated 2018).
Entries after “also recorded” stand apart in the source; their conditions may differ.

Columns and labels:
Format in all cases: physicochemical
[1] = Glossiness (refractive index), Abbe refractometer NTR-2T; settings: 20° C.
Protocol: Measurement is carried out using Abbe refractometer NTR-2T (Atago Co., Ltd.) at 20° C., and resulting values represent refractive index.

[2] = Ultraviolet absorber solubility in oily bases; note: key: C: Soluble; N: Insoluble; (N): Since it is insoluble when ultraviolet absorber is 3%, it is judged to be probably insoluble at 5% as well
Protocol: Their state after 1 week was evaluated visually.

[3] = Smoothness (MIU, MMD), KES-SE Friction Tester on artificial leather; settings: for MIU (mean frictional coefficient) / MMD (fluctuation of mean frictional coefficient): 25° C., 0.1 ml on artificial leather, average of three; for Smoothness in comparison with other oil agents: comparison of MIU at similar viscosity
Protocol: Smoothness of ester compounds was measured using KES-SE Friction Tester (Kato Tech Co., Ltd.) with a detection-unit jig (an accessory of the tester, made of silicone rubber with irregularities resembling a human finger) and artificial leather (artificial leather Supplare produced by Idemitsu Technofine Co., Ltd.). On the artificial leather, 0.1 ml of an ester compound was droped. The jig was contacted to the site on the surface of the artificial leather where the oil agent was dropped. Temperature of the leather, oil agent and jig was adjusted to 25° C. in a constant temperature bath. Then, the jig was moved back and forth once at the same site with a speed of 1 mm/s (the moving distance of the jig was approximately 80 mm in one back-and-forth movement), and a mean frictional coefficient (MIU) and a fluctuation of mean frictional coefficient (MMD) for one back-and-forth movement were measured. The measurement was performed three times and the average values of MIU and MMD were calculated, which were used as indices of smoothness. For comparison, MIU and MMD of the various ester compounds used in the viscosity measurement were also measured.

[4] = Compatibility with various types of oil agent; parameters: key to Compatibility with Hydrogenated polyisobutene / Compatibility with Isononyl isononanoate / Compatibility with Neopentyl glycol diethylhexanoate / Compatibility with Triethylhexanoin / Compatibility with Octyldodecanol / Compatibility with Polyglyceryl-2 triisostearate / Compatibility with Diisostearyl malate / Compatibility with Olive oil / Compatibility with Isostearic acid / Compatibility with Cyclomethicone / Compatibility with Dimethicone (10 mm^2/s) / Compatibility with Ethanol / Compatibility with Glycerin / Compatibility with Squalane / Compatibility with Mineral oil: C: Compatible; N: Not compatible; settings: for Compatibility with Cyclomethicone / Compatibility with Dimethicone (10 mm^2/s) / Compatibility with Ethanol / Compatibility with Glycerin / Compatibility with Hydrogenated polyisobutene / Compatibility with Isostearic acid / Compatibility with Mineral oil / Compatibility with Octyldodecanol / Compatibility with Olive oil / Compatibility with Polyglyceryl-2 triisostearate / Compatibility with Squalane / Compatibility with Triethylhexanoin / Compatibility with Diisostearyl malate / Compatibility with Isononyl isononanoate / Compatibility with Neopentyl glycol diethylhexanoate: 25° C., visual after 1 week
Protocol: Each of TCDNP and TCDDNP obtained in Synthesis Examples 1 and 8 and each of oily bases are combined with a weight ratio of 9:1 or 1:1, and dissolved in a water bath at 80-90° C. for approximately 30 min with stirring, then cooled to 50° C. with stirring, and stored in a thermostatic chamber at 25° C. Their compatibility was evaluated by visually checking the state after 1 week.

[5] = Viscosity, Brookfield viscometer DV-II+; settings: 25° C., spindle No. 2, 12 rpm
Protocol: Viscosity of ester compounds was measured using Brookfield viscometer DV-II+ (spindle No. 2, 12 rpm, 25° C.). As a comparison, viscosity of oil agents commonly used in cosmetic products was also measured.

[6] = Tinosorb S 5%, judged from insolubility at 3%
[7] = Tinosorb S 5%, 25° C., visual after 1 week
[8] = Tinosorb S 7%, 25° C., visual after 1 week
[9] = Tinosorb S 2%, 25° C., visual after 1 week

CC(C)CCCCCCCCCCOC(=O)CCCCCC(C)C [Isotridecyl isononanoate, reference compound]
Refractive index [1]: 1.445
Solubility of ultraviolet absorber Tinosorb S in the component [2, 6]: (N)

CC(C)(C)C(=O)OCC1CC2CC1C1CCC(COC(=O)C(C)(C)C)C21 (centres unmarked) [TCDDNP, 3,8-bis-(neopentanoyloxymethyl)-tricyclo[5.2.1.0^2,6]decane]
Refractive index [1]: 1.472
MIU (mean frictional coefficient) [3]: 0.28
MMD (fluctuation of mean frictional coefficient) [3]: 0.006
Compatibility with the oil agents (overall) [4]: excellent compatibility with the oil agents other than glycerin
Compatibility with Cyclomethicone ([4]; 10%): C
Compatibility with Dimethicone (10 mm^2/s) ([4]; 10%): C
Compatibility with Ethanol ([4]; 10%): C
Compatibility with Glycerin ([4]; 10%): N
Compatibility with Hydrogenated polyisobutene ([4]; 10%): C
Compatibility with Isostearic acid ([4]; 10%): C
Compatibility with Mineral oil ([4]; 10%): C
Compatibility with Octyldodecanol ([4]; 10%): C
Compatibility with Olive oil ([4]; 10%): C
Compatibility with Polyglyceryl-2 triisostearate ([4]; 10%): C
Compatibility with Squalane ([4]; 10%): C
Compatibility with Triethylhexanoin ([4]; 10%): C
Compatibility with Cyclomethicone ([4]; 50%): C
Compatibility with Dimethicone (10 mm^2/s) ([4]; 50%): C
Compatibility with Ethanol ([4]; 50%): C
Compatibility with Glycerin ([4]; 50%): N
Compatibility with Hydrogenated polyisobutene ([4]; 50%): C
Compatibility with Isostearic acid ([4]; 50%): C
Compatibility with Mineral oil ([4]; 50%): C
Compatibility with Octyldodecanol ([4]; 50%): C
Compatibility with Olive oil ([4]; 50%): C
Compatibility with Polyglyceryl-2 triisostearate ([4]; 50%): C
Compatibility with Squalane ([4]; 50%): C
Compatibility with Triethylhexanoin ([4]; 50%): C
Viscosity [5]: 462 mPa · s

Ethylhexyl isononanoate
Solubility of ultraviolet absorber Tinosorb S in the component [2, 7]: N

CC(C)(C)C(=O)OCC1CC2CC1C1CCCC21 (centres unmarked) [TCDNP, tricyclo[5.2.1.0^2,6]deca-8-yl-methyl neopentanoate]
Refractive index [1]: 1.479
MIU (mean frictional coefficient) [3]: 0.25
MMD (fluctuation of mean frictional coefficient) [3]: 0.006
Smoothness in comparison with other oil agents [3]: superior smoothness than squalane; also recorded: comparable to dimethicone
Solubility of ultraviolet absorber Tinosorb S in the component [2, 8]: N
Compatibility with the oil agents (overall) [4]: excellent compatibility with the oil agents other than glycerin
Compatibility with Cyclomethicone ([4]; 10%): C
Compatibility with Diisostearyl malate ([4]; 10%): C
Compatibility with Dimethicone (10 mm^2/s) ([4]; 10%): C
Compatibility with Ethanol ([4]; 10%): C
Compatibility with Glycerin ([4]; 10%): N
Compatibility with Hydrogenated polyisobutene ([4]; 10%): C
Compatibility with Isononyl isononanoate ([4]; 10%): C
Compatibility with Mineral oil ([4]; 10%): C
Compatibility with Neopentyl glycol diethylhexanoate ([4]; 10%): C
Compatibility with Octyldodecanol ([4]; 10%): C
Compatibility with Polyglyceryl-2 triisostearate ([4]; 10%): C
Compatibility with Squalane ([4]; 10%): C
Compatibility with Cyclomethicone ([4]; 50%): C
Compatibility with Diisostearyl malate ([4]; 50%): C
Compatibility with Dimethicone (10 mm^2/s) ([4]; 50%): C
Compatibility with Ethanol ([4]; 50%): C
Compatibility with Glycerin ([4]; 50%): N
Compatibility with Hydrogenated polyisobutene ([4]; 50%): C
Compatibility with Isononyl isononanoate ([4]; 50%): C
Compatibility with Mineral oil ([4]; 50%): C
Compatibility with Neopentyl glycol diethylhexanoate ([4]; 50%): C
Compatibility with Octyldodecanol ([4]; 50%): C
Compatibility with Polyglyceryl-2 triisostearate ([4]; 50%): C
Compatibility with Squalane ([4]; 50%): C
Viscosity [5]: 32 mPa · s

CC(C)CCCCCCOC(=O)CCCCCC(C)C [Isononyl isononanoate]
Solubility of ultraviolet absorber Tinosorb S in the component [2, 7]: N

CC(C)CCCCCC(=O)OCC(C)(C)COC(=O)CCCCCC(C)C [Neopentyl glycol diisononanoate]
Solubility of ultraviolet absorber Tinosorb S in the component [2, 6]: (N)

CC(C)CCCCCCCCCCCCCCCOC(=O)C(C)(C)C [Isostearyl neopentanoate, reference compound]
Refractive index [1]: 1.446
MIU (mean frictional coefficient) [3]: 0.27
MMD (fluctuation of mean frictional coefficient) [3]: 0.006
Solubility of ultraviolet absorber Tinosorb S in the component [2, 7]: N
Viscosity [5]: 14 mPa · s

CCOC(=O)CCCCCCCCCCCCCCC(C)C [Ethyl isostearate]
Solubility of ultraviolet absorber Tinosorb S in the component [2, 7]: N

Pentaerythrityl tetraisostearate [reference compound]
Refractive index [1]: 1.468

CCCCC(=O)OCC1CC2CC1C1CCCC21 (centres unmarked) [TCDP, tricyclo[5.2.1.0^2,6]deca-8-yl-methyl-n-pentanoate]
Refractive index [1]: 1.484
MIU (mean frictional coefficient) [3]: 0.29
MMD (fluctuation of mean frictional coefficient) [3]: 0.005
Viscosity [5]: 15 mPa · s

CC(C)CCCCCCCOC(=O)C(C)(C)C [Isodecyl neopentanoate, reference compound]
Refractive index [1]: 1.430
MIU (mean frictional coefficient) [3]: 0.15
MMD (fluctuation of mean frictional coefficient) [3]: 0.005
Solubility of ultraviolet absorber Tinosorb S in the component [2, 7]: N
Viscosity [5]: 4 mPa · s

CC(C)COC(=O)CCCCC(=O)OCC(C)C [Diisobutyl adipate]
Solubility of ultraviolet absorber Tinosorb S in the component [2, 8]: N

Isopropyl dimerate
Solubility of ultraviolet absorber Tinosorb S in the component [2, 9]: N

CCCCCCCCCC(=O)OCC(C)(C)COC(=O)CCCCCCCCC [Neopentyl glycol dicaprate]
Solubility of ultraviolet absorber Tinosorb S in the component [2, 8]: N

Ethylhexyl hydroxystearate
Solubility of ultraviolet absorber Tinosorb S in the component [2, 6]: (N)

Polyglyceryl-2 triisostearate [reference compound]
MIU (mean frictional coefficient) [3]: 0.31
MMD (fluctuation of mean frictional coefficient) [3]: 0.008
Viscosity [5]: 339 mPa · s

CCCCCCCCCCC(CO)CCCCCCCC (centres unmarked) [Octyldodecanol, reference compound]
MIU (mean frictional coefficient) [3]: 0.39
MMD (fluctuation of mean frictional coefficient) [3]: 0.007
Viscosity [5]: 49 mPa · s

CCCCC(CC)C(=O)OCC(C)(C)COC(=O)C(CC)CCCC (centres unmarked) [Neopentyl glycol diethylhexanoate]
Solubility of ultraviolet absorber Tinosorb S in the component [2, 7]: N

CCCCCCCCCCC(CO)CCCCCCCCCC [Decyldodecanol, reference compound]
MIU (mean frictional coefficient) [3]: 0.40
MMD (fluctuation of mean frictional coefficient) [3]: 0.006
Viscosity [5]: 69 mPa · s

CC(CC(=O)OCC1CC2CC1C1CCCC21)CC(C)(C)C (centres unmarked) [TCDIN, tricyclo[5.2.1.0^2,6]deca-8-yl-methyl isononanoate]
Refractive index [1]: 1.479
MIU (mean frictional coefficient) [3]: 0.31
MMD (fluctuation of mean frictional coefficient) [3]: 0.006
Smoothness in comparison with other oil agents [3]: superior smoothness than squalane
Solubility of ultraviolet absorber Tinosorb S in the component [2, 7]: N
Viscosity [5]: 44 mPa · s

CC(C)C(=O)OCC1CC2CC1C1CCCC21 (centres unmarked) [TCDIB, tricyclo[5.2.1.0^2,6]deca-8-yl-methyl isobutanoate]
Refractive index [1]: 1.483
MIU (mean frictional coefficient) [3]: 0.27
MMD (fluctuation of mean frictional coefficient) [3]: 0.005
Viscosity [5]: 15 mPa · s

CC(C)CCCC(C)CCCC(C)CCCCC(C)CCCC(C)CCCC(C)C (centres unmarked) [Squalane, reference compound]
MIU (mean frictional coefficient) [3]: 0.40
MMD (fluctuation of mean frictional coefficient) [3]: 0.007
Viscosity [5]: 32 mPa · s

tricyclo[5.2.1.0^2,6]deca-8-yl-methyl isostearate [TCDIS]
Refractive index [1]: 1.482
MIU (mean frictional coefficient) [3]: 0.40
MMD (fluctuation of mean frictional coefficient) [3]: 0.006
Viscosity [5]: 85 mPa · s

CCCCCCCCCCCCCCCCCC(=O)OC(CCCCCC)CCCCCCCCCCC(=O)OCC(CCCCCCCC)CCCCCCCCCC (centres unmarked) [Octyldodecyl stearoyloxy stearate, reference compound]
MIU (mean frictional coefficient) [3]: 0.41
MMD (fluctuation of mean frictional coefficient) [3]: 0.006
Solubility of ultraviolet absorber Tinosorb S in the component [2, 9]: N
Viscosity [5]: 96 mPa · s
